Data on two molecules can be found in patent US10537557B2, “Methods of treating respiratory disorders” (CASE WESTERN RESERVE UNIVERSITY, priority 2016, dated 2020).

The test system of assay [1] is hyperoxia-exposed mice. Put plainly: Lung mechanics: methacholine challenge after neonatal hyperoxia (BPD model), flexiVent Rrs. Type of assay: in vivo, C57BL/6 mice. Particulars: for Rrs in response to aerosolized methacholine challenge (airway hyperreactivity): 3-week-old mice raised in hyperoxia (60%), compared with room air controls; for Rrs increase in hyperoxia, methacholine dose response (FIG. 5A-B): at 3 weeks and after room air recovery at 6 weeks of age; for Rrs in response to aerosolized methacholine challenge (airway hyperresponsiveness): six-week-old mice, 3 weeks neonatal hyperoxia then room air recovery. Here is the method:
Animal protocols were approved by the Institutional Animal Care and Use Committee at Case Western Reserve University (Cleveland, Ohio). Timed pregnant C57BL/6 mice (Charles River Laboratories, Wilmington, Mass.) were maintained on 12-hour light-dark cycles with ad libitum standard food and water. Within 24 hours of birth, litters were pooled and randomized into exposure groups. Paired with a nursing dam, pups were raised in 60% oxygen or room air (21%) for 21 days. Hyperoxia-exposed animals were housed in standard cages placed in a 38-L Plexiglas chamber with a continuous flow of blended oxygen (2 L/min). Oxygen concentrations were monitored twice daily via an oxygen analyzer (miniOX I; MSA Medical, Gurnee, Ill.). To control for oxygen exposures, nursing dams were rotated between paired litters during weekly cage changes. Ventilator studies were conducted and/or tissue harvested within 24 hours of removal from hyperoxia at 3 weeks. A subgroup of animals was returned to room air following 3 weeks of initial hyperoxia exposure and subsequently recovered to 6 weeks of age for adult lung mechanic and GSNOR activity studies.
N6022 is a selective small molecule reversible inhibitor of GSNOR. Powdered N6022 (Nivalis Therapeutics, Boulder, Colo., purchased through MedChem Express, Monmouth Junction, N.J.) was reconstituted in sterile PBS (pH 7.4) and administered to hyperoxia exposed mice as a single 1 mg/kg i.p. injection the day prior to testing lung mechanics.
Under general anesthesia (i.p. ketamine/xylazine), mice were placed supine on a heated surgical table, tracheostomized, and ventilated via a 19-gauge blunt-tip cannula with a commercial rodent ventilator (flexiVent; SCIREQ, Montreal, Canada). Animals were paralyzed (i.p. pancuronium bromide; Sigma-Aldrich) and ventilated at default settings: tidal volume of 10 mL/kg, a rate of 150 breaths/min, a positive end expiratory pressure of 3 cm H2O, and a FiO2 of 50%. Following two recruitment deep inflations of sustained inspiration up to a pressure of 30 cm H2O for 3 seconds, 10 mM GSNO or saline vehicle was aerosolized over 10 seconds using an ultrasonic nebulizer (Aeroneb; SCIREQ) diverted into the ventilator's inspiratory flow. Inhaled GSNO concentration was chosen based upon the published studies in ventilated guinea pigs and human trials in cystic fibrosis. After 5 minutes had elapsed, two recruitment deep inflations were again delivered, and increasing methacholine doses of 0, 12.5, 25, 50, 100, and 200 mg/mL were similarly aerosolized over 10 seconds to generate a dose-response curve. Using computer software (flexiWare 5.1, Version 7.2, SCIREQ), five measurements of respiratory system resistance (Rrs) were calculated by a 2.5 Hz single-frequency forced oscillation maneuver (Snapshot 150), and an average was reported for each methacholine dose. Respiratory mechanics were measured in both 3-week-old mice immediately following sustained hyperoxia exposure and separate 6-week-old mice that were recovered in room air following the initial 3 weeks of hyperoxia exposure.
Data are expressed as means±S.E.M. A minimum of two litters or experiments was used for each study; n represent individual animals or cell transfections. Data containing two groups were first tested for normality and variance and then analyzed by two sample student t test, Welch's t test, or Mann-Whitney U test, as appropriate. For multiple comparisons, analysis of variance with Tukey-Kramer post hoc test was used. Alterations in airway reactivity with increasing doses of methacholine were compared by two-way analysis of variance repeated-measures analysis with Tukey-Kramer post hoc comparisons using a fixed-sequence method from highest to lowest methacholine dose. P, 0.05 was considered statistically significant.

Assay [2] relates to room air-exposed mice. The assay can be described thus: Lung mechanics: methacholine challenge in room air-exposed mice, flexiVent Rrs. Type of assay: in vivo, C57BL/6 mice. Particulars: both ages (3 and 6 weeks), GSNO pretreatment, data not shown. Here is the method:
Animal protocols were approved by the Institutional Animal Care and Use Committee at Case Western Reserve University (Cleveland, Ohio). Timed pregnant C57BL/6 mice (Charles River Laboratories, Wilmington, Mass.) were maintained on 12-hour light-dark cycles with ad libitum standard food and water. Within 24 hours of birth, litters were pooled and randomized into exposure groups. Paired with a nursing dam, pups were raised in 60% oxygen or room air (21%) for 21 days. Hyperoxia-exposed animals were housed in standard cages placed in a 38-L Plexiglas chamber with a continuous flow of blended oxygen (2 L/min). Oxygen concentrations were monitored twice daily via an oxygen analyzer (miniOX I; MSA Medical, Gurnee, Ill.). […]
Under general anesthesia (i.p. ketamine/xylazine), mice were placed supine on a heated surgical table, tracheostomized, and ventilated via a 19-gauge blunt-tip cannula with a commercial rodent ventilator (flexiVent; SCIREQ, Montreal, Canada). […] Using computer software (flexiWare 5.1, Version 7.2, SCIREQ), five measurements of respiratory system resistance (Rrs) were calculated by a 2.5 Hz single-frequency forced oscillation maneuver (Snapshot 150), and an average was reported for each methacholine dose. […]
Data are expressed as means±S.E.M. A minimum of two litters or experiments was used for each study; n represent individual animals or cell transfections. […]

The conditions of assay [3]: Gaston et al. 1994; cited from earlier work.

Regarding `N[C@@H](CCC(=O)N[C@@H](CSN=O)C(=O)NCC(=O)O)C(=O)O` [GSNO, S-nitrosoglutathione], in assay [1] (pretreatment 10 mM GSNO aerosol over 10 seconds), the “Rrs in response to aerosolized methacholine challenge (airway hyperreactivity)” value is listed as “attenuated these changes, such that this group was no longer significantly different from room air controls, except at the highest methacholine dose (200 mg/mL)”. The “Rrs increase in hyperoxia, methacholine dose response (FIG. 5A-B)” value in assay [1] (10 mM GSNO aerosol) is reported as “attenuated these changes”. Besides, the “Rrs in response to aerosolized methacholine challenge (airway hyperresponsiveness)” value in assay [1] (pretreatment 10 mM GSNO aerosol) is “remained effective in attenuating the hyperoxia induced airway hyperresponsiveness”. For the same molecule, the “Rrs compared with room air saline-treated controls” value in assay [2] is “did not significantly change Rrs”. For the same molecule, in assay [3], the “bronchodilator potency relative to theophylline” value is listed as 100 fold.

On to `Cc1cc(C(N)=O)ccc1-n1c(CCC(=O)O)ccc1-c1ccc(-n2ccnc2)cc1` [N6022, reference compound], for which the “Rrs in response to aerosolized methacholine challenge (airway hyperreactivity)” value in assay [1] (single 1 mg/kg i.p. injection the day prior) is recorded as “attenuated these changes as well, such that this group was no longer significantly different from room air controls at all methacholine doses”. The “Rrs increase in hyperoxia, methacholine dose response (FIG. 5A-B)” value in assay [1] (1 mg/kg N6022 injection) is reported as “attenuated these changes”. For the same molecule, the “Rrs in response to aerosolized methacholine challenge (airway hyperresponsiveness)” value in assay [1] (1 mg/kg i.p. injection) is recorded as “remained effective in attenuating the hyperoxia induced airway hyperresponsiveness”.
